Measured values: PubChem BioAssay AID248 (DTP/NCI, 2004)
“And” between values parts separate entries of the source, which are not always exact repeats. Equal values may be shown once. Inconclusive results and toxic doses are left out. Rule as the data show it: active = T/C of 150% or more; inactive = T/C below 125%.

Tested on: L1210 leukemia ip in BDF1 mice, survival T/C
Assay: NCI In Vivo Anticancer Drug Screen. Data for tumor model L1210 Leukemia (intraperitoneal) in B6D2F1 (BDF1) mice
Settings: endpoint: mean survival time, higher = longer survival
Summary of the method: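 Survival endpoint. Drug-treated group vs vehicle group, expressed as T divided by C. Tumor passaged by transplantation.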

[1] = dose: 100.0 mg/kg/injection, schedule: Q01DX001 (ip), vehicle: Klucel (hydroxypropylcellulose) (HPC)
[2] = dose: 200.0 mg/kg/injection, schedule: Q01DX001 (ip), vehicle: Klucel (hydroxypropylcellulose) (HPC)
[3] = dose: 200.0 mg/kg/injection, schedule: Q01DX009 (ip), vehicle: Klucel (hydroxypropylcellulose) (HPC)
[4] = dose: 400.0 mg/kg/injection, schedule: Q01DX001 (ip), vehicle: Klucel (hydroxypropylcellulose) (HPC)
[5] = dose: 50.0 mg/kg/injection, schedule: Q01DX009 (ip), vehicle: saline
[6] = dose: 100.0 mg/kg/injection, schedule: Q01DX009 (ip), vehicle: saline
[7] = dose: 100.0 mg/kg/injection, schedule: Q01DX001 (ip), vehicle: saline
[8] = dose: 100.0 mg/kg/injection, schedule: Q04DX003 (ip), vehicle: saline
[9] = dose: 200.0 mg/kg/injection, schedule: Q01DX001 (ip), vehicle: saline
[10] = dose: 400.0 mg/kg/injection, schedule: Q01DX001 (ip), vehicle: saline
[11] = dose: 25.0 mg/kg/injection, schedule: Q01DX009 (ip), vehicle: saline

Measured: T/C

O=C(CSCCN1CCCCC1)N1c2ccccc2Sc2ccccc21
inactive: dose: 10.0 mg/kg/injection, schedule: Q01DX009 (ip), vehicle: saline 102 % of control | dose: 20.0 mg/kg/injection, schedule: Q01DX009 (ip), vehicle: saline 100 % of control | dose: 40.0 mg/kg/injection, schedule: Q01DX009 (ip), vehicle: saline 96 % of control

COc1ccccc1/C=C(/C)[N+](=O)[O-]
inactive: dose: 100.0 mg/kg/injection, schedule: Q01DX001 (ip), vehicle: carboxymethylcellulose (CMC) 97 % of control | dose: 200.0 mg/kg/injection, schedule: Q01DX001 (ip), vehicle: carboxymethylcellulose (CMC) 97 % of control | dose: 400.0 mg/kg/injection, schedule: Q01DX001 (ip), vehicle: carboxymethylcellulose (CMC) 100 % of control

Cc1cc([N+](=O)[O-])c(C)cc1O
inactive: dose: 75.0 mg/kg/injection, schedule: Q01DX001 (ip), vehicle: saline 91 % of control | dose: 150.0 mg/kg/injection, schedule: Q01DX001 (ip), vehicle: saline 94 % of control

COC1/C=C\OC2(C)Oc3c(C)c(O)c4c(O)c(c(/C=N\OCCCc5ccccc5)c(O)c4c3C2=O)NC(=O)/C(C)=C\C=C/C(C)C(O)C(C)C(O)C(C)C(OC(C)=O)C1C (stereo not given)
inactive: dose: 25.0 mg/kg/injection, schedule: Q04DX003 (ip), vehicle: water 96 % of control | dose: 50.0 mg/kg/injection, schedule: Q04DX003 (ip), vehicle: water 104 % of control | dose: 100.0 mg/kg/injection, schedule: Q04DX003 (ip), vehicle: water 100 % of control | dose: 200.0 mg/kg/injection, schedule: Q04DX003 (ip), vehicle: water 100 % of control

CCCCOC(=O)c1ccc(OC(=O)Nc2cccc(Cl)c2)cc1
inactive: [1] 94 % of control | [2] 92 % of control | [3] 102 % of control | [4] 90 % of control

O=C(/C=C/c1ccc2c(c1)OCO2)c1ccc([N+](=O)[O-])cc1
inactive: dose: 100.0 mg/kg/injection, schedule: Q04DX003 (ip), vehicle: alcohol 93 % of control | dose: 200.0 mg/kg/injection, schedule: Q04DX003 (ip), vehicle: alcohol 90 % of control | dose: 400.0 mg/kg/injection, schedule: Q04DX003 (ip), vehicle: alcohol 93 % of control

O=C(NCCCl)N(c1ccccc1)c1cccc(C(F)(F)F)c1
inactive: dose: 100.0 mg/kg/injection, schedule: Q01DX005 (ip), vehicle: Klucel (hydroxypropylcellulose) (HPC) 102 % of control | dose: 100.0 mg/kg/injection, schedule: Q01DX009 (ip), vehicle: Klucel (hydroxypropylcellulose) (HPC) 98 % of control | dose: 100.0 mg/kg/injection, schedule: Q04DX002 (ip), vehicle: Klucel (hydroxypropylcellulose) (HPC) 114 % of control | dose: 200.0 mg/kg/injection, schedule: Q01DX005 (ip), vehicle: Klucel (hydroxypropylcellulose) (HPC) 91 % of control | [3] 98 % of control | dose: 200.0 mg/kg/injection, schedule: Q04DX002 (ip), vehicle: Klucel (hydroxypropylcellulose) (HPC) 96 % of control | dose: 400.0 mg/kg/injection, schedule: Q01DX005 (ip), vehicle: Klucel (hydroxypropylcellulose) (HPC) 94 % of control | dose: 400.0 mg/kg/injection, schedule: Q01DX009 (ip), vehicle: Klucel (hydroxypropylcellulose) (HPC) 98 % of control | dose: 400.0 mg/kg/injection, schedule: Q04DX002 (ip), vehicle: Klucel (hydroxypropylcellulose) (HPC) 104 % of control

O=C1CC(C(=O)O)c2ccccc21 (stereo not given)
inactive: [5] 93 % of control | [6] 90 % of control | dose: 200.0 mg/kg/injection, schedule: Q01DX009 (ip), vehicle: saline 93 % of control

O=C1C2CC=CCC2C(=O)C2CC=CCC12 (stereo not given)
inactive: dose: 100.0 mg/kg/injection, schedule: Q01DX009 (ip), vehicle: saline with Tween-80 99 % of control | dose: 200.0 mg/kg/injection, schedule: Q01DX009 (ip), vehicle: saline with Tween-80 93 % of control | dose: 400.0 mg/kg/injection, schedule: Q01DX009 (ip), vehicle: saline with Tween-80 90 % of control

O=c1[nH]cnc2nncnc12
inactive: dose: 50.0 mg/kg/injection, schedule: Q01DX001 (ip), vehicle: carboxymethylcellulose (CMC) 93 % of control

CN(C)c1ccc(C2NC(c3ccccc3)c3c(ccc4ccccc34)O2)cc1 (stereo not given)
inactive: [7] 92 % of control | [8] 90 % of control | [9] 89 % of control | [10] 89 % of control | dose: 400.0 mg/kg/injection, schedule: Q04DX003 (ip), vehicle: saline 90 % of control

CCCC[P+](CCCC)(CCCC)CC(=O)OCC
inactive: dose: 15.0 mg/kg/injection, schedule: Q01DX001 (ip), vehicle: carboxymethylcellulose (CMC) 86 % of control | dose: 60.0 mg/kg/injection, schedule: Q01DX001 (ip), vehicle: carboxymethylcellulose (CMC) 87 % of control

CCOC(=O)c1[nH]cnc1/N=N/N(C1CCCCC1)C1CCCCC1
inactive: dose: 50.0 mg/kg/injection, schedule: Q01DX001 (ip), vehicle: other 94 % of control | dose: 100.0 mg/kg/injection, schedule: Q01DX001 (ip), vehicle: other 97 % of control | dose: 200.0 mg/kg/injection, schedule: Q01DX001 (ip), vehicle: other 102 % of control | dose: 400.0 mg/kg/injection, schedule: Q01DX001 (ip), vehicle: other 92 % of control

CCOC(=O)C(=NNc1cccc(Br)c1)C(=O)OCC
inactive: [7] 98 % of control | [9] 94 % of control | [10] 96 % of control

Nc1ccnc(=S)[nH]1
inactive: [1] 92 % of control | [2] 97 % of control | dose: 250.0 mg/kg/injection, schedule: Q01DX Z (ip), vehicle: methylcellulose (MC) 101 % of control | [4] 94 % of control

CC(=O)C(C(C)=O)c1ccccc1.CC(=O)C(C(C)=O)c1ccccc1.[Ni]
inactive: dose: 6.0 mg/kg/injection, schedule: Q01DX009 (ip), vehicle: saline 94 % of control | dose: 12.0 mg/kg/injection, schedule: Q01DX009 (ip), vehicle: saline 94 % of control | [11] 102 % of control

COc1ccc(CC[n+]2ccc(C#N)c(C(C)=O)c2)cc1OC
inactive: dose: 75.0 mg/kg/injection, schedule: Q01DX001 (ip), vehicle: carboxymethylcellulose (CMC) 106 % of control | dose: 150.0 mg/kg/injection, schedule: Q01DX001 (ip), vehicle: carboxymethylcellulose (CMC) 105 % of control

NC(=O)c1cc(I)cc(I)c1N
inactive: dose: 100.0 mg/kg/injection, schedule: Q01DX001 (ip), vehicle: saline with Tween-80 95 % of control | dose: 200.0 mg/kg/injection, schedule: Q01DX001 (ip), vehicle: saline with Tween-80 97 % of control | dose: 400.0 mg/kg/injection, schedule: Q01DX001 (ip), vehicle: saline with Tween-80 98 % of control

CC1OC(C(Cl)(Cl)Cl)NC1=O (stereo not given)
inactive: dose: 100.0 mg/kg/injection, schedule: Q04DX002 (ip), vehicle: saline 89 % of control | dose: 200.0 mg/kg/injection, schedule: Q04DX002 (ip), vehicle: saline 99 % of control | dose: 400.0 mg/kg/injection, schedule: Q04DX002 (ip), vehicle: saline 89 % of control

CC(=O)/C(C)=C/C(=O)O
inactive: [11] 95 % of control | dose: 25.0 mg/kg/injection, schedule: Q04DX003 (ip), vehicle: saline 97 % of control | [5] 97 % of control | dose: 50.0 mg/kg/injection, schedule: Q04DX003 (ip), vehicle: saline 97 % of control | [6] 105 % of control | [8] 97 % of control and 108 % of control
